Where “and” joins values, the source holds several entries; their conditions need not be identical. Equal entries are not always repeated. Toxic doses and inconclusive results are not listed.

This assay relates to CD2F1 mice, L1210 leukemia ip, survival T/C. Nature of the assay: NCI In Vivo Anticancer Drug Screen. Data for tumor model L1210 Leukemia (intraperitoneal) in CD2F1 (CDF1) mice. To be noted: higher = longer survival. An outline of the steps: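 Ratio T/C, where T is the treated-group value and C the vehicle-dosed control value, from mice implanted with a transplantable tumor.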

The mark [1] stands for this setting: endpoint: mean survival time, dose: 50.0 mg/kg/injection, schedule: Q01DX009 (ip), vehicle: saline.
Setting [2] is: endpoint: mean survival time, dose: 100.0 mg/kg/injection, schedule: Q01DX009 (ip), vehicle: saline.
Where [3] appears, read: endpoint: mean survival time, dose: 12.5 mg/kg/injection, schedule: Q01DX005 (ip), vehicle: other.
The mark [4] stands for this setting: endpoint: mean survival time, dose: 25.0 mg/kg/injection, schedule: Q01DX005 (ip), vehicle: other.
Setting [5] is: endpoint: mean survival time, dose: 50.0 mg/kg/injection, schedule: Q01DX005 (ip), vehicle: other.
[6] abbreviates: endpoint: mean survival time, dose: 100.0 mg/kg/injection, schedule: Q01DX005 (ip), vehicle: other.
Setting [7] is: endpoint: mean survival time, dose: 200.0 mg/kg/injection, schedule: Q01DX005 (ip), vehicle: other.
[8] abbreviates: endpoint: mean survival time, dose: 100.0 mg/kg/injection, schedule: Q04DX003 (ip), vehicle: saline with Tween-80.
Where [9] appears, read: endpoint: mean survival time, dose: 200.0 mg/kg/injection, schedule: Q04DX003 (ip), vehicle: saline with Tween-80.
Where [10] appears, read: endpoint: mean survival time, dose: 400.0 mg/kg/injection, schedule: Q04DX003 (ip), vehicle: saline with Tween-80.
Where [11] appears, read: endpoint: mean survival time, dose: 100.0 mg/kg/injection, schedule: Q01DX009 (ip), vehicle: saline with Tween-80.
The mark [12] stands for this setting: endpoint: mean survival time, dose: 400.0 mg/kg/injection, schedule: Q01DX009 (ip), vehicle: saline with Tween-80.
Setting [13] is: endpoint: mean survival time, dose: 200.0 mg/kg/injection, schedule: Q01DX009 (ip), vehicle: saline.
Setting [14] is: endpoint: mean survival time, dose: 200.0 mg/kg/injection, schedule: Q01DX009 (ip), vehicle: saline with Tween-80.
Where [15] appears, read: endpoint: mean survival time, dose: 50.0 mg/kg/injection, schedule: Q01DX009 (ip), vehicle: saline with Tween-80.

Take `O=C(O)C(O)C(O)C(OC1OC(CO)C(O)C(O)C1O)C(O)CO.O=C(O)C(O)C(O)C(OC1OC(CO)C(O)C(O)C1O)C(O)CO.[NH-]C1CCCCC1[NH-].[Pt+2]` (stereo not given): the T/C (endpoint: median survival time, dose: 3.12 mg/kg/injection, schedule: Q04DX003 (ip), vehicle: saline) is 113 % of control; the T/C (endpoint: median survival time, dose: 6.25 mg/kg/injection, schedule: Q04DX003 (ip), vehicle: saline) is 121 % of control; the T/C (endpoint: median survival time, dose: 12.5 mg/kg/injection, schedule: Q04DX003 (ip), vehicle: saline) was 162 % of control; the T/C (endpoint: median survival time, dose: 25.0 mg/kg/injection, schedule: Q04DX003 (ip), vehicle: saline) is 195 % of control; the T/C (endpoint: median survival time, dose: 50.0 mg/kg/injection, schedule: Q04DX003 (ip), vehicle: saline) is 158 % of control and 365 % of control; the T/C (endpoint: median survival time, dose: 200.0 mg/kg/injection, schedule: Q04DX003 (ip), vehicle: saline) was 119 % of control.
On to `O=C(CCCN1CCC(O)(c2ccc(C(F)(F)F)cc2)CC1)c1ccc(N2CCC(O)CC2)cc1`, for which the T/C (endpoint: mean survival time, dose: 12.5 mg/kg/injection, schedule: Q04DX002 (ip), vehicle: saline with Tween-80) is 103 % of control; the T/C (endpoint: mean survival time, dose: 25.0 mg/kg/injection, schedule: Q04DX002 (ip), vehicle: saline with Tween-80) is 103 % of control; the T/C (endpoint: mean survival time, dose: 50.0 mg/kg/injection, schedule: Q04DX002 (ip), vehicle: saline with Tween-80) was 103 % of control.
With `CCN(CC)CCCCNc1ccc(NCCCCN(CC)CC)c2c1C(=O)c1ccccc1C2=O`, the T/C (endpoint: mean survival time, dose: 25.0 mg/kg/injection, schedule: Q01DX009 (ip), vehicle: saline) was 109 % of control; the T/C under setting [1] was 90 % of control; the T/C under setting [2] was 95 % of control.
For `CCSC(C(OC(C)=O)C(OC(C)=O)C(COC(C)=O)OC(C)=O)n1cc(F)c(=O)[nH]c1=O` (stereo not given), the T/C under setting [3] is 100 % of control and 104 % of control; the T/C under setting [4] is 98 % of control and 105 % of control; the T/C under setting [5] was 88 % of control and 98 % of control; the T/C under setting [6] is 98 % of control and 105 % of control; the T/C under setting [7] is 94 % of control and 107 % of control.
As for `CCOC(=O)CC1OCCO1`, the T/C reads like this: under setting [8], 98 % of control; under setting [9], 103 % of control; under setting [10], 101 % of control.
In the case of `CCOC(=O)C(C(=O)OCC)c1cc(NC(=O)c2ccccc2)ccc1NC(=O)c1ccccc1`, the T/C is 87 % of control under setting [11] and 93 % of control under setting [12].
Consider `O=c1oc(-c2cccc([N+](=O)[O-])c2)nc2ccccc12`, for which the T/C under setting [8] is 100 % of control and the T/C under setting [9] was 88 % of control.
Consider `O=C(O)C(O)C(O)C(O)C(O)C(O)CO` (stereo not given), for which the T/C reads like this: under setting [2], 98 % of control; under setting [13], 98 % of control; (endpoint: mean survival time, dose: 400.0 mg/kg/injection, schedule: Q01DX009 (ip), vehicle: saline) 97 % of control.
As for `CCCCCCCCCCCCCCCCCCNC(=O)Nc1ccc(CC)cc1`, the T/C is 98 % of control under setting [11]; 94 % of control under setting [8]; 109 % of control under setting [14]; 89 % of control under setting [9]; 110 % of control under setting [12]; 93 % of control under setting [10].
As for `COC(=O)Nc1cccc(OC(=O)N(C(C)C)C(C)C)c1`, the T/C is 94 % of control under setting [8], 97 % of control under setting [9] and 96 % of control under setting [10].
As to `Cc1c(N)cccc1F`, the T/C was 95 % of control (endpoint: mean survival time, dose: 50.0 mg/kg/injection, schedule: Q01DX009 (ip), vehicle: saline sonified); 95 % of control (endpoint: mean survival time, dose: 100.0 mg/kg/injection, schedule: Q04DX003 (ip), vehicle: saline); 95 % of control (endpoint: mean survival time, dose: 200.0 mg/kg/injection, schedule: Q04DX003 (ip), vehicle: saline).
For `O=C(N/N=C/c1ccc(Cl)c(Cl)c1)c1ccccc1`, the T/C by setting is: (endpoint: mean survival time, dose: 100.0 mg/kg/injection, schedule: Q01DX009 (ip), vehicle: Klucel (hydroxypropylcellulose) (HPC)) 94 % of control; (endpoint: mean survival time, dose: 100.0 mg/kg/injection, schedule: Q04DX003 (ip), vehicle: Klucel (hydroxypropylcellulose) (HPC)) 96 % of control; (endpoint: mean survival time, dose: 200.0 mg/kg/injection, schedule: Q01DX009 (ip), vehicle: Klucel (hydroxypropylcellulose) (HPC)) 90 % of control; (endpoint: mean survival time, dose: 200.0 mg/kg/injection, schedule: Q04DX003 (ip), vehicle: Klucel (hydroxypropylcellulose) (HPC)) 88 % of control; (endpoint: mean survival time, dose: 400.0 mg/kg/injection, schedule: Q01DX009 (ip), vehicle: Klucel (hydroxypropylcellulose) (HPC)) 89 % of control; (endpoint: mean survival time, dose: 400.0 mg/kg/injection, schedule: Q04DX003 (ip), vehicle: Klucel (hydroxypropylcellulose) (HPC)) 97 % of control.
As to `Nc1nc2ncccc2[nH]1`, the T/C was 108 % of control under setting [3]; 107 % of control under setting [4]; 104 % of control under setting [5]; 101 % of control under setting [6]; 103 % of control under setting [7].
For the molecule `Nc1cc(Cl)c(I)cc1Cl`, the T/C is, setting by setting: (endpoint: mean survival time, dose: 100.0 mg/kg/injection, schedule: Q01DX001 (ip), vehicle: saline) 102 % of control; (endpoint: mean survival time, dose: 200.0 mg/kg/injection, schedule: Q01DX001 (ip), vehicle: saline) 102 % of control; (endpoint: mean survival time, dose: 400.0 mg/kg/injection, schedule: Q01DX001 (ip), vehicle: saline) 101 % of control.
Turning to `CC(C)(C)c1ccccc1O[Si](C)(C)C`, the T/C runs as follows: under setting [15], 105 % of control; under setting [11], 94 % of control; under setting [8], 97 % of control; under setting [9], 94 % of control.
For the molecule `ClCC1(CCl)COC(c2ccccc2)OC1`, the T/C by setting is: under setting [11], 95 % of control; under setting [14], 95 % of control; under setting [12], 94 % of control.
For the molecule `c1ccc2c(c1)[nH]c1nc3ccncc3nc12`, the T/C was 96 % of control under setting [1], 104 % of control under setting [2] and 95 % of control under setting [13].
With `O=C1/C(=C\c2ccccc2)Oc2cc(O)c(O)cc21`, the T/C by setting is: (endpoint: mean survival time, dose: 25.0 mg/kg/injection, schedule: Q01DX001 (ip), vehicle: saline with Tween-80) 100 % of control; (endpoint: mean survival time, dose: 50.0 mg/kg/injection, schedule: Q01DX001 (ip), vehicle: saline with Tween-80) 104 % of control; (endpoint: mean survival time, dose: 100.0 mg/kg/injection, schedule: Q01DX001 (ip), vehicle: saline with Tween-80) 100 % of control.
Regarding `CCCC/C=C/C1(O)CCCCC1`, the T/C was 98 % of control under setting [15], 103 % of control under setting [11] and 103 % of control under setting [14].
With `CC(C)CCCC(C)C1CCC2C3C(O)C=C4CC(OC(=O)CCC(C)C)CCC4(C)C3CCC12C` (stereo not given), the T/C is 94 % of control under setting [11], 91 % of control under setting [14] and 100 % of control under setting [12].
On to `CC(=O)C(Cl)C(=O)c1c(C)[nH]n(-c2ccccc2)c1=O` (stereo not given), for which the T/C was 112 % of control (endpoint: median survival time, dose: 25.0 mg/kg/injection, schedule: Q01DX005 (ip), vehicle: Klucel (hydroxypropylcellulose) (HPC)); 111 % of control (endpoint: median survival time, dose: 50.0 mg/kg/injection, schedule: Q01DX005 (ip), vehicle: Klucel (hydroxypropylcellulose) (HPC)); 111 % of control (endpoint: median survival time, dose: 100.0 mg/kg/injection, schedule: Q01DX005 (ip), vehicle: Klucel (hydroxypropylcellulose) (HPC)).
In the case of `Clc1n[nH]c(Cl)n1`, the T/C (endpoint: mean survival time, dose: 25.0 mg/kg/injection, schedule: Q01DX009 (ip), vehicle: saline with Tween-80) is 97 % of control; the T/C under setting [15] is 100 % of control; the T/C under setting [11] was 89 % of control; the T/C under setting [8] is 86 % of control.
As to `COC(=O)c1ccccc1-c1c(C)cccc1[N+](=O)[O-]`, the T/C runs as follows: (endpoint: mean survival time, dose: 100.0 mg/kg/injection, schedule: Q01DX001 (ip), vehicle: Klucel (hydroxypropylcellulose) (HPC)) 98 % of control; (endpoint: mean survival time, dose: 200.0 mg/kg/injection, schedule: Q01DX001 (ip), vehicle: Klucel (hydroxypropylcellulose) (HPC)) 87 % of control; (endpoint: mean survival time, dose: 400.0 mg/kg/injection, schedule: Q01DX001 (ip), vehicle: Klucel (hydroxypropylcellulose) (HPC)) 89 % of control.
For `CC(C)N(Cl)S(C)(=O)=O`, the T/C (endpoint: mean survival time, dose: 25.0 mg/kg/injection, schedule: Q04DX003 (ip), vehicle: saline with Tween-80) is 97 % of control; the T/C (endpoint: mean survival time, dose: 50.0 mg/kg/injection, schedule: Q04DX003 (ip), vehicle: saline with Tween-80) is 93 % of control; the T/C under setting [8] was 95 % of control.

Values taken from PubChem BioAssay AID256 (DTP/NCI, 2004).
